This passage reports logP and IC50 results from ChEMBL document CHEMBL3045840, “Application of pocket modeling and k-nearest neighbor molecular field analysis (kNN-MFA) for designing of some anticoagulants: potential factor IXa inhibitors” (Med Chem Res, 2013).

≈ marks a conversion by molar mass, not a printed value.

One may read the logP as the decadic logarithm of the partition coefficient of the neutral form, usually between octanol and water. Low values mean lower lipophilicity, high ones higher lipophilicity. In general, IC50 refers to the midpoint of a concentration-inhibition curve.

Series [1] can be described thus: Octanol-water partition coefficient, log P of the compound. The format is physicochemical.
Series [2] is described as follows: Anticoagulant activity in plasma assessed as elongation in mean prothrombin time after 5 min by Quick's method. Type of series: functional, cell-free.

With `CC(=O)Oc1ccccc1-c1nnc(NC(=O)C/C(C)=N/c2ccccn2)s1`, the logP in series [1] came to 3.65. Moreover, in series [2], the IC50 worked out at 2600 mg/L (≈ 6.57 mM).
In the case of `C/C(CC(=O)Nc1nnc(-c2ccc(O)cc2)s1)=N\c1ccc([N+](=O)[O-])cn1`, in series [1], the logP was found to be 3.34. For the same molecule, in series [2], the IC50 came out at 2800 mg/L (≈ 7.03 mM).
`C/C(CC(=O)Nc1nnc(-c2ccc(N)cc2)s1)=N\c1ccccn1` had a logP in series [1] of 3.3. Besides, in series [2], the IC50 stood at 3500 mg/L (≈ 9.93 mM).
`C/C(CC(=O)Nc1nnc(-c2ccc([N+](=O)[O-])cc2)s1)=N\c1ccccn1` showed a logP in series [1] of 3.63. Moreover, the IC50 in series [2] came to 1200 mg/L (≈ 3.14 mM).
Taken in the same sequence, the figures for `C/C(CC(=O)Nc1nnc(/C=C/c2ccccc2)s1)=N\c1ccccn1` were 4.22 and 2400 mg/L (≈ 6.6 mM).
In the same order, the values of `C/C(CC(=O)Nc1nnc(-c2ccc(O)cc2)s1)=N\c1ccccn1` are 3.43 and 3100 mg/L (≈ 8.77 mM).
Taken in the same sequence, the figures for `C/C(CC(=O)Nc1nnc(-c2ccc(N)cc2)s1)=N\c1ccc([N+](=O)[O-])cn1` were 3.21 and 2700 mg/L (≈ 6.79 mM).
In series [1], `CC(=O)Oc1ccccc1-c1nnc(NC(=O)C/C(C)=N/c2ccc([N+](=O)[O-])cn2)s1` came in with a logP of 3.55. In series [2], the concentration for half-maximal inhibition (IC50) is 2100 mg/L (≈ 4.77 mM).
In series [1], `C/C(CC(=O)Nc1nnc(-c2ccc([N+](=O)[O-])cc2)s1)=N\c1ccc([N+](=O)[O-])cn1` yielded a logP of 3.54. The IC50 in series [2] stood at 1200 mg/L (≈ 2.81 mM).
Molecule `C/C(CC(=O)Nc1nnc(/C=C/c2ccccc2)s1)=N\c1ccc([N+](=O)[O-])cn1` displayed a logP in series [1] of 4.13. Also, the IC50 in series [2] was 3000 mg/L (≈ 7.34 mM).
